Here are results for twelve molecules from patent publication US20260007681A1, “INDOLE DERIVATIVES AS ESTROGEN RECEPTOR DEGRADERS” (REGENTS OF THE UNIVERSITY OF MICHIGAN, priority 2022, published 2026).

Counter-ions that a name gives are not always drawn. Like-named read-outs stand apart in the source and are kept apart here.

The target of assay [1] is CRBN/DDB1 (Homo sapiens (Human), UniProt Q96SW2). It is filed as binding. How it is done:
The binding potency was determined using H-TRF assay technology (Perkin Elmer). Compounds were serially diluted in DMSO and 0.2 μL volume was transferred to white 384-well plate.

Assay [2] concerns the target ER in MCF-7 cells (Homo sapiens (Human), UniProt P03372). Kind of assay: In-cell western (ICW) ER degradation assay in MCF-7 cells (Compounds A1-A70). It is filed as cell-based. The following applies: for DC50: ER degradation, 0.02 to 300 nM, read-out: MCF7 ICW DC50.
The target in assay [3] is ER in T47D cells (Homo sapiens (Human), UniProt P03372). Nature of the assay: In-cell western (ICW) ER degradation assay in T47D cells (Compounds A1-A70). The class given is cell-based. Particulars: for DC50: ER degradation, 0.02 to 300 nM; for Dmax: T47D, read-out: T47D ICW Dmax (%).
The mark [4] stands for this setting: His tagged CRBN+DDB-DLS7+CXU4, Cy5-labeled Thalidomide probe, one hour incubation, read-out: CRBN HTRF IC50.
Setting [5] is: MCF7, maximal ER degradation, MCF-7 cells, 16 hrs treatment, read-out: MCF7 ICW Dmax (%).
Setting [6] is: maximal ER degradation, T47D cells, 16 hrs treatment.
The mark [7] stands for this setting: MCF7, read-out: MCF7 ICW Dmax (%).

Sequence of ER in T47D cells (P03372 whole entry): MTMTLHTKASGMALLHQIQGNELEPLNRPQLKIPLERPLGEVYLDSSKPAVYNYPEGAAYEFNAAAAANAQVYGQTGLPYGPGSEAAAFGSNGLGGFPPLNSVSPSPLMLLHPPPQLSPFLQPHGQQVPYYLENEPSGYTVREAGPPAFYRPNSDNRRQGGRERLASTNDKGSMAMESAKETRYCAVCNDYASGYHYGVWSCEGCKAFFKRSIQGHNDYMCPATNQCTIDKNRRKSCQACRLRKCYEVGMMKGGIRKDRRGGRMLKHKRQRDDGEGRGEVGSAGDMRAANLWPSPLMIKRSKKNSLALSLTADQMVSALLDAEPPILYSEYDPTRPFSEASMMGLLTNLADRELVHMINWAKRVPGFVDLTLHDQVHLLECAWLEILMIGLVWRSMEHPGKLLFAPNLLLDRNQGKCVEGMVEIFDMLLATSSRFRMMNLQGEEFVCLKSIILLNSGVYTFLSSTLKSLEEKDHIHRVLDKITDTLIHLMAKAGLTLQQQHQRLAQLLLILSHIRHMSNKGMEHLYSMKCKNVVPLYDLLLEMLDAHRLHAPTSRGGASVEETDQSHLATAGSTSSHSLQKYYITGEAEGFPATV
Sequence of ER in MCF-7 cells (P03372 whole entry): as above

What is called IC50 is the concentration at which inhibition is half-maximal. One may read the DC50 as the midpoint of the concentration-degradation curve. What is called Dmax is the greatest extent of degradation seen. In the case of `COc1cc(N2CCC(CN3CCN4c5cc6c(cc5OC[C@@H]4C3)C(=O)N([C@@H]3CCC(=O)NC3=O)C6)CC2)ccc1[C@H]1c2[nH]c3ccccc3c2C[C@H](C)N1CC(F)F` [Compound A44, (R)-3-((S)-3-((1-(4-((1S,3S)-2-(2,2-difluoroethyl)-3-methyl-2,3,4,9-tetrahydro-1H-pyrido[3,4-b]indol-1-yl)-3-methoxyphenyl)piperidin-4-yl)methyl)-8-oxo-1,2,3,4,4a,5,8,10-octahydro-9H-pyrazino[1′,2′:4,5][1,4]oxazino[2,3-f]isoindol-9-yl)piperidine-2,6-dione], the half-inhibitory concentration (IC50) in assay [1] (setting [4]) was 50 to 500 nM. Besides, the 50% degradation concentration (DC50) in assay [2] (MCF-7 cells, 16 hrs treatment) was under 1 nM; in assay [3] (T47D cells, 16 hrs treatment) it was under 1 nM. Moreover, the Dmax in assay [2] (setting [5]) and in assay [3] (setting [6]) was 50 to 75% throughout.

For `COc1cc(N2CCC3(CCN(C(=O)CN4Cc5cnc(C(=O)N[C@H]6CCC(=O)NC6=O)cc5C4)CC3)CC2)ccc1[C@@H]1c2[nH]c3ccccc3c2C[C@@H](C)N1CC(F)F` [Compound A50, 2-(2-(9-(4-((1R,3R)-2-(2,2-difluoroethyl)-3-methyl-2,3,4,9-tetrahydro-1H-pyrido[3,4-b]indol-1-yl)-3-methoxyphenyl)-3,9-diazaspiro[5.5]undecan-3-yl)-2-oxoethyl)-N—((S)-2,6-dioxopiperidin-3-yl)-2,3-dihydro-1H-pyrrolo[3,4-c]pyridine-6-carboxamide formate], the IC50 in assay [1] is 500 to 5000 nM. The Dmax in assay [2] (setting [7]) and in assay [3] was 50 to 75% in each case.

For the molecule `COc1cc(N2CCC(CN3CCN4c5ccc(C(=O)NC6CCC(=O)NC6=O)nc5OC[C@H]4C3)CC2)ccc1[C@@H]1c2[nH]c3ccccc3c2C[C@@H](C)N1CC(F)F` (stereo partly drawn) [Compound A51, (4aR)-3-((1-(4-((1R,3R)-2-(2,2-difluoroethyl)-3-methyl-2,3,4,9-tetrahydro-1H-pyrido[3,4-b]indol-1-yl)-3-methoxyphenyl)piperidin-4-yl)methyl)-N-(2,6-dioxopiperidin-3-yl)-1,2,3,4,4a,5-hexahydropyrazino[1,2-d]pyrido[2,3-b][1,4]oxazine-8-carboxamide formate], in assay [1] (setting [4]), the IC50 lay in the range of 500 to 5000 nM. Also, the DC50 was under 1 nM in assay [2] (MCF-7 cells, 16 hrs treatment) and under 1 nM in assay [3] (T47D cells, 16 hrs treatment). The greatest degradation seen (Dmax) in assay [2] (setting [7]) and in assay [3] (setting [6]) was over 75% throughout.

Regarding `COc1cc(N2CCC(CN3CCN(c4ccc(C(=O)NC5CCC(=O)NC5=O)nc4OC)CC3)CC2)ccc1[C@@H]1c2[nH]c3ccccc3c2C[C@@H](C)N1CC(F)F` (stereo partly drawn) [Compound A52, 5-(4-((1-(4-((1R,3R)-2-(2,2-difluoroethyl)-3-methyl-2,3,4,9-tetrahydro-1H-pyrido[3,4-b]indol-1-yl)-3-methoxyphenyl)piperidin-4-yl)methyl)piperazin-1-yl)-N-(2,6-dioxopiperidin-3-yl)-6-methoxypicolinamide], the IC50 in assay [1] (setting [4]) was over 5000 nM. The DC50 in assay [2] (MCF-7 cells, 16 hrs treatment) is under 1 nM; in assay [3] (T47D cells, 16 hrs treatment), 1 to 10 nM. The Dmax in assay [2] (setting [5]) and in assay [3] (setting [6]) was 25 to 50% in each case.

`COc1cc(N2CCC(CN3CCC(c4ccc(C(=O)NC5CCC(=O)NC5=O)nc4)CC3)CC2)ccc1[C@@H]1c2[nH]c3ccccc3c2C[C@@H](C)N1CC(F)F` (stereo partly drawn) [Compound A53, 5-(1-((1-(4-((1R,3R)-2-(2,2-difluoroethyl)-3-methyl-2,3,4,9-tetrahydro-1H-pyrido[3,4-b]indol-1-yl)-3-methoxyphenyl)piperidin-4-yl)methyl)piperidin-4-yl)-N-(2,6-dioxopiperidin-3-yl)picolinamide]: the IC50 in assay [1] (setting [4]) fell in the range of 500 to 5000 nM. In addition, the half-maximal degradation concentration (DC50) is under 1 nM in assay [2] (MCF-7 cells, 16 hrs treatment) and over 100 nM in assay [3] (T47D cells, 16 hrs treatment). In addition, the Dmax in assay [2] (setting [5]) was 25 to 50%; in assay [3] (setting [6]) it was under 25%.

Turning to `COc1cc(N2CCC(CN3CCN4c5ccc(C(=O)NC6CCC(=O)NC6=O)nc5OC[C@H]4C3)CC2)ccc1[C@H]1c2[nH]c3ccccc3c2C[C@H](C)N1CC(F)F` (stereo partly drawn) [Compound A54, (4aR)-3-((1-(4-((1S,3S)-2-(2,2-difluoroethyl)-3-methyl-2,3,4,9-tetrahydro-1H-pyrido[3,4-b]indol-1-yl)-3-methoxyphenyl)piperidin-4-yl)methyl)-N-(2,6-dioxopiperidin-3-yl)-1,2,3,4,4a,5-hexahydropyrazino[1,2-d]pyrido[2,3-b][1,4]oxazine-8-carboxamide], the 50% inhibitory concentration (IC50) in assay [1] (setting [4]) is 500 to 5000 nM. Moreover, the half-maximal degradation concentration (DC50) is under 1 nM in assay [2] (MCF-7 cells, 16 hrs treatment) and under 1 nM in assay [3] (T47D cells, 16 hrs treatment). Also, the Dmax in assay [2] (setting [5]) and in assay [3] (setting [6]) was 50 to 75% each time.

Turning to `COc1cc(N2CCC(CN3CCN(c4ccc(C(=O)N[C@@H]5CCC(=O)NC5=O)nc4)CC3)CC2)ccc1[C@@H]1c2[nH]c3ccccc3c2C[C@@H](C)N1CC(F)F` [Compound A57, 5-(4-((1-(4-((1R,3R)-2-(2,2-difluoroethyl)-3-methyl-2,3,4,9-tetrahydro-1H-pyrido[3,4-b]indol-1-yl)-3-methoxyphenyl)piperidin-4-yl)methyl)piperazin-1-yl)-N-((R)-2,6-dioxopiperidin-3-yl)picolinamide formate], the IC50 in assay [1] (setting [4]) is under 50 nM. Besides, the 50% degradation concentration (DC50) was under 1 nM in assay [2] (MCF-7 cells, 16 hrs treatment) and under 1 nM in assay [3] (T47D cells, 16 hrs treatment). In addition, the maximal degradation (Dmax) lay in the range of 50 to 75% in assay [2] (setting [5]) and 25 to 50% in assay [3] (setting [6]).

`C[C@H]1Cc2c([nH]c3ccccc23)[C@H](c2cnc(N3CCC4(CC3)C[C@H](CN3CCN5c6ccc7c(c6OC[C@@H]5C3)CN([C@@H]3CCC(=O)NC3=O)C7=O)CO4)nc2)N1CC(F)F` [Compound A58, (R)-3-((S)-7-(((R)-8-(5-((1S,3S)-2-(2,2-difluoroethyl)-3-methyl-2,3,4,9-tetrahydro-1H-pyrido[3,4-b]indol-1-yl)pyrimidin-2-yl)-1-oxa-8-azaspiro[4.5]decan-3-yl)methyl)-1-oxo-1,3,5,5a,6,7,8,9-octahydro-2H-pyrazino[1′,2′:4,5][1,4]oxazino[2,3-e]isoindol-2-yl)piperidine-2,6-dione]: the concentration for half-maximal inhibition (IC50) in assay [1] (setting [4]) lay within 50 to 500 nM. Besides, the DC50 in assay [2] (MCF-7 cells, 16 hrs treatment) was under 1 nM; in assay [3] (T47D cells, 16 hrs treatment), under 1 nM. The Dmax in assay [2] (setting [5]) and in assay [3] (setting [6]) was 50 to 75% in each case.

For `C[C@H]1Cc2c([nH]c3ccccc23)[C@H](c2cnc(N3CCC4(CC3)C[C@H](CN3CCN5c6cc7c(cc6OC[C@H]5C3)C(=O)N([C@@H]3CCC(=O)NC3=O)C7)CO4)nc2)N1CC(F)F` [Compound A60, (R)-3-((R)-3-(((R)-8-(5-((1S,3S)-2-(2,2-difluoroethyl)-3-methyl-2,3,4,9-tetrahydro-1H-pyrido[3,4-b]indol-1-yl)pyrimidin-2-yl)-1-oxa-8-azaspiro[4.5]decan-3-yl)methyl)-8-oxo-1,2,3,4,4a,5,8,10-octahydro-9H-pyrazino[1′,2′:4,5][1,4]oxazino[2,3-f]isoindol-9-yl)piperidine-2,6-dione], the IC50 in assay [1] (setting [4]) lay within 500 to 5000 nM. Further, the DC50 is under 1 nM in assay [2] (MCF-7 cells, 16 hrs treatment) and under 1 nM in assay [3] (T47D cells, 16 hrs treatment). For the same molecule, the Dmax in assay [2] (setting [5]) and in assay [3] (setting [6]) was 50 to 75% in each case.

On to `C[C@H]1Cc2c([nH]c3ccccc23)[C@H](c2ccc(N3CCC(CN4CCN5c6ccc7c(c6OC[C@@H]5C4)CN([C@@H]4CCC(=O)NC4=O)C7=O)CC3)cn2)N1CC(F)(F)F` [Compound A62, (R)-3-((S)-7-((1-(6-((1R,3S)-3-methyl-2-(2,2,2-trifluoroethyl)-2,3,4,9-tetrahydro-1H-pyrido[3,4-b]indol-1-yl)pyridin-3-yl)piperidin-4-yl)methyl)-1-oxo-1,3,5,5a,6,7,8,9-octahydro-2H-pyrazino[1′,2′:4,5][1,4]oxazino[2,3-e]isoindol-2-yl)piperidine-2,6-dione], for which the 50% inhibitory concentration (IC50) in assay [1] (setting [4]) fell in the range of 500 to 5000 nM. Besides, the DC50 in assay [2] (MCF-7 cells, 16 hrs treatment) fell in the range of 10 to 100 nM; in assay [3] (T47D cells, 16 hrs treatment), 10 to 100 nM. Besides, the Dmax in assay [2] (setting [5]) and in assay [3] (setting [6]) was 25 to 50% each time.

On to `C[C@H]1Cc2c([nH]c3ccccc23)[C@H](c2ccc(N3CCC(CN4CCN5c6cc7c(cc6OC[C@H]5C4)C(=O)N([C@@H]4CCC(=O)NC4=O)C7)CC3)cn2)N1CC(F)(F)F` [Compound A64, (R)-3-((R)-3-((1-(6-((1R,3S)-3-methyl-2-(2,2,2-trifluoroethyl)-2,3,4,9-tetrahydro-1H-pyrido[3,4-b]indol-1-yl)pyridin-3-yl)piperidin-4-yl)methyl)-8-oxo-1,2,3,4,4a,5,8,10-octahydro-9H-pyrazino[1′,2′:4,5][1,4]oxazino[2,3-f]isoindol-9-yl)piperidine-2,6-dione], for which the IC50 in assay [1] (setting [4]) fell in the range of 500 to 5000 nM. The DC50 in assay [2] (MCF-7 cells, 16 hrs treatment) is over 100 nM; in assay [3] (T47D cells, 16 hrs treatment), over 100 nM. In addition, the maximal degradation (Dmax) in assay [2] (setting [5]) and in assay [3] (setting [6]) was under 25% in each case.

Turning to `C[C@@H]1Cc2c([nH]c3ccccc23)[C@H](c2cnc(N3CCC4(CC3)C[C@@H](CN3CCN5c6ccc(C(=O)N[C@H]7CCC(=O)NC7=O)nc6OC[C@H]5C3)CO4)nc2)N1CC(F)F` [Compound A65, (R)-3-(((S)-8-(5-((1S,3R)-2-(2,2-difluoroethyl)-3-methyl-2,3,4,9-tetrahydro-1H-pyrido[3,4-b]indol-1-yl)pyrimidin-2-yl)-1-oxa-8-azaspiro[4.5]decan-3-yl)methyl)-N-((S)-2,6-dioxopiperidin-3-yl)-1,2,3,4,4a,5-hexahydropyrazino[1,2-d]pyrido[2,3-b][1,4]oxazine-8-carboxamide], the half-inhibitory concentration (IC50) in assay [1] (setting [4]) fell in the range of 50 to 500 nM. Further, the DC50 in assay [2] (MCF-7 cells, 16 hrs treatment) is 1 to 10 nM; in assay [3] (T47D cells, 16 hrs treatment) it was 1 to 10 nM. Also, the Dmax in assay [2] (setting [5]) and in assay [3] (setting [6]) was 50 to 75% each time.
